Like-named read-outs stand apart in the source and are kept apart here.
Experiments:
Akt [1] = test: Immunohistochemistry assay for phosphorylated Akt in H9c2 cells; type: cell-based, rat; conditions: 50 μM, 3 hours, vs vehicle
Protocol: The ability of RLip-EA-OH to increase phosphorylated Akt was assayed in H9c2 cells by immunocytochemistry followed by visualization using microscopy. H9c2 cells are a cell line derived from rat cardiac myocytes and can be manipulated to increase or decrease the level of phosphoryated Akt. Cells were inoculated onto culture plates and allowed to adhere to the bottom, treated, fixed, and permeabilized. Following permeabilization, cells were treated initially with specific phospho-Akt antibodies followed by fluorescent secondary antibodies to quantify the amount of bound primary antibody.
H9c2 cells were plated in 12 well cell culture treated plates at 70% confluence. Cells were incubated overnight to allow cell attachment. The media was changed to low serum (0.5%, fetal bovine serum [FBS]) and cells incubated for another 48 hours. Cells were treated for 3 hours with either vehicle, RLip-EA-OH (50 μM), or co-treatment with LY294002 (25 μM), fixed with 3.7% formaldehyde in phosphate buffered saline and permeabilized with 0.5% Triton X-100 in phosphate buffered saline. After permeabilization, the cells were treated with antibody specific for Akt phosphorylated at threonine-308, followed by treatment with a fluorescent labeled secondary antibody.

[2] = tested on: RIP-deficient Jurkat cells; test: Cell survival assay, TNFα-induced apoptosis; type: cell-based, human; conditions: for % Survival: 10 ng/mL TNFα, 24 h
Protocol: The ability of RLip-EA-OH to prevent apoptosis and promote cell survival was assessed using Jurkat cells deficient in Receptor-Interacting Protein (RIP), a cell death mediating protein. The Jurkat cell line is derived from human T-Lymphocytes. RIP-deficient Jurkat cells are susceptible to apoptosis when treated with tumor necrosis factor alpha (TNFα). These cells were treated with either vehicle or RLip-EA-OH and then apoptosis was triggered with TNFα. Cell survival was assessed to evaluate if RLip-EA-OH protected the cells against TNFα induced apoptosis.
RIP-deficient Jurkat cells were seeded into 96 well plates at 20,000 cells per well and treated for 2 hours with RLip-EA-OH (6 wells for each concentration) or DMSO. After pretreatment, 3 wells for each dose of drug were exposed to 10 ng/mL human recombinant TNFα (TNFα was not added to the other 3 wells). Twenty four hours after TNFα treatment, ATP cell viability was determined (CellTiter-Glo, Promega) and the values were used to calculate % survival of the cells.

IGF1R = IGF1R (Homo sapiens, UniProt P08069); test: IGF1R tyrosine kinase activation assay (mobility shift); type: biochemical
From the text: IGF1R and Src tyrosine kinases have endogenous levels of activity in the presence of ATP and substrate. This activity was readily measured using a mobility shift assay using a Caliper LabChip® 3000 and a 12-sipper LabChip® to detect both phosphorylated and unphosphorylated substrate (Caliper Life Sciences, Discovery Alliances and Services Division). Enzyme, substrate and ATP concentrations were optimized for each assay. For the IGF1R assay, the final concentrations of the enzyme, peptide and ATP were 20 nM, 1.5 μM, and 1220 μM, respectively. For the Src assay, the final concentrations of the enzyme, peptide and ATP were 2.5 nM, 1.5 μM, and 17 μM, respectively.
RLip-EA-OH was evaluated at multiple concentrations for an effect on activation of IGF1 receptor kinase (IGF1R) and Src. The compounds tested activated IGF1R and Src with different selectivities.

Akt [3] = test: Cytoblot assay for Akt activation in A549 cells; type: cell-based, human
Protocol: The ability of RLip-EA-OH to increase phosphorylated Akt was assayed using an in-cell western blot, or cytoblot. A549 cells (human non-small cell lung cancer cell line) were selected because these cells can be manipulated to increase or decrease the level of phosphoryated Akt. The cells were inoculated onto culture plates and allowed to adhere to the bottom, then treated, fixed, and permeabilized. Following permeabilization, the cells were treated with antibodies specific for either phospho-Akt or total Akt. The cells were then treated with fluorescent secondary antibodies to quantify the amount of bound primary antibody. Total Akt and phospho-Akt were simultaneously detected.
A549 cells were plated in 384 well black-wall, clear-bottom, cell culture-treated microtiter plates at 70% confluence. Cells were incubated overnight to allow cell attachment. The media was changed to low serum (0.1%, fetal bovine serum [FBS]) and the cells were incubated for another 24 hours. Cells were treated with test compounds, fixed and permeabilized for the Akt assay. The fixative was 3.7% formaldehyde in phosphate buffered saline. The permeabilization buffer was 0.5% Triton X-100 in phosphate buffered saline. After permeabilization of cells, the amounts of total Akt and phosphorylated Akt at either of the two phosphorylation sites (threonine-308 and serine-473) were determined at 7 test concentrations, each performed in quadruplicate. The phospho-Akt data were normalized to total Akt and background subtracted for analysis.
Following overnight serum starvation to reduce basal Akt phosphorylation, cells were stimulated with vehicle, RLip-EA-OH, or RLip-OH. Cells were treated for 45 minutes or 3 hours and studied for phosphorylation at serine-473 or threonine 308, respectively.

[4] = Pharmacokinetic evaluation in rats; type: in vivo; conditions: both sexes, rat
Protocol: To evaluate systemic exposure to RLip-EA-OH, groups of rats were given single intravenous infusion doses of vehicle (2/sex) or RLip-EA-OH at the same dose levels of 30, 100, or 200 mg/kg (6/sex/group). For the vehicle-treated group, blood samples were collected from all rats at pre-dose and at 30 minutes (+2 minutes) post-dose only. For RLip-EA-OH-treated groups, blood samples were collected from three rats/sex/group at 10 minutes, 30 minutes, 45 minutes and 1, 2, 3, and 4 hours (±2 minutes) after dosing.
Administration was by IV infusion into a surgically-placed catheter in the femoral vein using a syringe pump at a rate of injection no greater than 0.2 mL/min. The dose volume for each animal was based on the most recent body weight measurement and doses were rounded to the nearest 0.1 mL. […]
Samples were placed in tubes containing K3EDTA and stored on ice until centrifuged, under refrigeration, for at least ten minutes at 3000 rpm. After centrifugation, plasma was removed and stored frozen at or below minus 70° C. until shipped to BASi in West Lafayette, Ind. for analysis.
Plasma RLip-EA-OH concentrations were measured at BASi in West Lafayette, Ind., using a validated LC/MS/MS method with positive turbo ion spray, in the multiple reaction-monitoring mode. The quantifiable range for the assay was 0.05 to 50 μg/mL and QC samples were included at 0.15, 10 and 37.5 μg/mL. Toxicokinetic analysis was performed using WinNonlin version 5.1 by calculation of standard parameters.

IGF1R, sequence (P08069 959-1367 limits assumed, species assumed): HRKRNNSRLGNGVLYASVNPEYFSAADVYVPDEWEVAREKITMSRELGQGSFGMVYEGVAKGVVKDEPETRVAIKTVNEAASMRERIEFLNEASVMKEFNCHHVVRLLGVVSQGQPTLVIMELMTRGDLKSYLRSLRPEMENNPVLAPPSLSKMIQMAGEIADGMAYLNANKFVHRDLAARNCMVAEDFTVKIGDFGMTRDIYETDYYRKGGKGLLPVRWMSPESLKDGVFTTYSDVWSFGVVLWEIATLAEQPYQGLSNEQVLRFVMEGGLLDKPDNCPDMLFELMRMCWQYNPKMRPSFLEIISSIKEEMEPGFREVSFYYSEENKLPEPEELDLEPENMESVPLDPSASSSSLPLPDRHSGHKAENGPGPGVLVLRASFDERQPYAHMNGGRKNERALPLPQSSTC

SMILES: C[C@H](NC(=O)[C@H](CCC(=O)O)NC(=O)CCCC[C@@H]1CCSS1)C(=O)O [RLip-EA-OH, N-(R)-lipoyl-L-glutamyl-L- alanine]
- fluorescence intensity (Akt phosphorylated at threonine-308) (Akt [1]): much brighter
- % Survival ([2]; 0.006 μM): 84%
- % Survival ([2]; 0.012 μM): 95%
- % Survival ([2]; 0.05 μM): 96%
- % Survival ([2]; 0.1 μM): 98%
- % Survival ([2]; 0.2 μM): 101%
- % Survival ([2]; 1.5 μM): 106%
- effect on TNFα induced cell death ([2]; RIP-deficient Jurkat cells): prevented TNFα induced cell death in a dose dependent manner
- IGF1R % activity above control (±SEM) (IGF1R; 100 μM): 42 ± 1%
- IGF1R % Increase in activity above vehicle control (IGF1R; 300 μM): 33 ± 3%
- increase in phosphorylated Akt at serine 473 (Akt [3]; 45 minutes of treatment): 3 fold
- Akt phosphorylation at threonine-308 (Akt [3]; 3 hours of treatment, compound alone): Increased Akt phosphorylation
- amount of phosphorylated Akt relative to total Akt (Akt [3]; variant concentrations): increased the amount of phosphorylated Akt relative to total Akt in a dose dependent manner
- AUC(0-inf) ([4]; plasma, 30 mg/kg IV infusion): ~7000 ng·h/mL
- Cmax ([4]; plasma, 30 mg/kg IV infusion): 20000 ng/mL
- clearance ([4]; plasma, 30 mg/kg IV infusion): 75 mL/min/kg
- Vd ([4]; plasma, 30 mg/kg IV infusion, read-out: Vss): 1.2 L/kg
- half-life ([4]; plasma, 30 mg/kg IV infusion, read-out: t½ (converted)): 9 min
- half-life ([4]; serum, intravenous, rats, dose of 30 mg/kg, read-out: serum half-life): ~9 min
